For assay [1], the target named is T1, JAK2 JH2 WT (V536-D812) [W659A, W777A, F794H solubilizing mutations] (Homo sapiens, UniProt O60674, F794H/W659A/W777A).
T1 construct: **JAK2 JH2 WT (V536-D812) [W659A, W777A, F794H solubilizing mutations]; C-thrombin-avi-His6; thrombin cleavage site (C); His6 (C); purchased Biortus
Put plainly: Surface Plasmon Resonance (SPR) binding assay, JAK2 JH2 domain. As to the method: Selected compounds of the present disclosure were tested in a Surface Plasmon Resonance (SPR) Assay to measure their binding kinetics and affinity for proteins of interest.
Prepare buffer: 50 mM HEPES pH 7.5, 150 mM NaCl, 0.05% (v/v) Tween, and 10% (v/v) glycerol were combined and pH was adjusted to 7.5, then filtered. 5 mM DTT, was added, and buffer without DMSO was reserved for compound resuspension. 2% (v/v) DMSO was added for assay buffer, and separately 1% DMSO was used to make buffer for resuspending compounds.
Prepare compounds: Using a Bravo liquid handler, 99 μL of 1% (v/v) DMSO assay buffer was added to 1 μL compounds in DMSO.
Run 8K Method: Biotin CAPture (CAP) chip surface was regenerated prior to run by: Inserting CAP chip into Biacore 8K, prime machine with assay buffer with 2% (v/v) DMSO; Setting instrument temperature to 20° C.; Conditioning surface with NaOH/GdnHCl reagents from CAP chip kit (60 seconds, 10 μL/min); and Capturing oligo-Streptavidin (SA) reagent from CAP kit (600 seconds, 1 μL/min), expected capture ˜2500 RU. JAK2 JH1 or JH2 protein was immobilized by preparing a sample of 0.5 uM JH1 or 0.4 uM JH2 protein diluted in assay buffer without DMSO and supplemented with 10 uM of a selected compound of the invention as a stabilizer (370 seconds, 5 uL/min), expected capture ˜1000 RU. Remaining biotin sites on SA were blocked with 1 uM biotin (30 seconds, 20 uL/min), then equilibrated for 1800 seconds at 100 uL/min. Compounds being assayed were run in single cycle kinetics: 4 doses with a top concentration of 5 uM (JH1) or 500 nM (JH2), dilution factor of 3, at 20° C., for a contact time of 60 seconds, and a dissociation time of 300 seconds (JH1) or 1200 seconds (JH2), at a flow rate of 30 uL/min. The surface was completely regenerated after each compound is run, and JH1 or JH2 protein was immobilized fresh prior to each new compound. Data were fitted kinetically with 1:1 binding model using Biacore Insight Evaluation Software.

The test system of assay [2] is TF1 JAK2 V617F STAT3 reporter. Briefly: Cellular TF1 STAT3 assay (luciferase reporter), JAK2 V617F. The assay is classed as cell-based. Conditions: read-out: Cell PD-TF1 JAK2 V617F STAT3 (IC50). The procedure: (§1) Selected compounds of the present disclosure were tested in a Cellular TF1 STAT3 or STAT5 assay, to measure the degree of JAK2-mediated STAT3 or STAT5 phosphorylation, respectively. TF1 cells (immortalized erythroleukemia line) expressing either wildtype or V617F mutant JAK2 with a luciferase reporter were used.
(§2) Cell culture: Cells were put into antibiotic selection (1 ug/ml puro+500 ug/ml Geneticin) when first thawed then maintained in growth media without antibiotics. Cells were maintained in exponential growth phase, between 0.02-1 E6 cells/ml.
(§3) Compound preparation: Compounds were screened as 10-point dose response curves 1:3 dilutions. DMSO is used as the vehicle control. All wells were normalized to the same final DMSO concentration. Compounds were pre-spotted onto 384 well plates using an Echo acoustic dispenser, 50 nL of 1000× (10 mM top concentration) DMSO stock/well. Each compound is run in triplicate plates.
(§4) Cell plating: Cells were counted using Vi-Cell XR, then cells were spun down and resuspended in growth media to 200,000 cells/ml. Cells were added to plates containing compound. 10,000 cells/well in 50 ul volume using a Biomek liquid handler. Plates were briefly mixed on a shaker for 1 minute at 2500 rpm then placed in a 37° C., 5% CO2 incubator overnight for 18-20 hrs.
(§5) Measuring luciferase activity: ONE-glo reagent was brought to room temperature, and 25 μL of ONE-glo assay reagent was added to each well using Biomek liquid handler. The plates were incubated for 10 minutes at room temperature, then luminescence was measured on an Envision plate reader.

Assay [3] deals with TF1 JAK2 V617F STAT5 reporter. Put plainly: Cellular TF1 STAT5 assay (luciferase reporter), JAK2 V617F. The class given is cell-based. The conditions noted are these: read-out: Cell PD TF1 V617F STAT5 (IC50). The procedure: as §1, §2, §3, §4, §5
Background: Reporter assays use an easily measured gene product as a stand-in for the process of interest.

Setting [4] is: Homo sapiens, TF-1, TF1 cells, JAK2 V617F.

Like-named read-outs stand apart in the source and are kept apart here.

Data on 16 compounds can be found in patent US20240368122A1, “JAK2 INHIBITORS AND METHODS OF USE THEREOF” (RELAY THERAPEUTICS, INC., priority 2021, published 2024).

T1 sequence (O60674 536-812 W659A/W777A/F794H): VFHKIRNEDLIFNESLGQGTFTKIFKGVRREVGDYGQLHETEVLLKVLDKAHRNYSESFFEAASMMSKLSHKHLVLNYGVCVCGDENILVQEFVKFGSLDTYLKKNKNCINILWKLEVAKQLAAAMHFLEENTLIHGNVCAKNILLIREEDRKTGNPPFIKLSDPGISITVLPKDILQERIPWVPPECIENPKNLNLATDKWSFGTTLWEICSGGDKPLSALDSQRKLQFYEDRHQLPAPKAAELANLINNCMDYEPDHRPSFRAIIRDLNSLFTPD

One may read the Kd as a measure of binding affinity in units of concentration. Read a high Kd as lower affinity. Broadly, the IC50 is the concentration that gives 50% inhibition. In assay [1] (SPR, JAK2 JH2 domain), `CNC(=O)c1nnc(NC(=O)C2CC2)cc1Nc1cccc(-c2ccc(C(=O)N(C)Cc3cccn(C)c3=O)nc2)c1OC` [Compound 23] had a Kd of 0.01 to 10 nM. Moreover, the IC50 was 500 to 5000 nM in assay [2] (TF1 JAK2 V617F) and 50 to 500 nM in assay [3] (TF1 JAK2 V617F).
In turn, `CNC(=O)c1nnc(NC(=O)C2CC2)cc1Nc1cccc(-c2cnn(C3CN(C(C)c4cccc(C#N)n4)C3)c2)c1OC` (racemic) [Compound 227] registered a Kd in assay [1] of 0.01 to 10 nM. The IC50 in assay [2] (setting [4]) and in assay [3] (setting [4]) was 500 to 5000 nM each time.
In the case of `CNC(=O)c1nnc(NC(=O)C2CC2)cc1Nc1cccc(-c2cnn(C3CN(Cc4cccc(N)n4)C3)c2)c1OC` [Compound 242], the Kd in assay [1] fell in the range of 0.01 to 10 nM. Besides, the concentration for half-maximal inhibition (IC50) in assay [2] (setting [4]) and in assay [3] (setting [4]) was 50 to 500 nM throughout.
In assay [1] (SPR, JAK2 JH2 domain), `CNC(=O)c1nnc(NC(=O)C2CC2)cc1Nc1cccc(-c2cc(C3CN(Cc4cnn(C)c4)C3)nn2C)c1OC` [Compound 175] displayed a Kd of 0.01 to 10 nM. In addition, the IC50 in assay [2] (TF1 JAK2 V617F) and in assay [3] (TF1 JAK2 V617F) was 5000 to 100000 nM each time.
`CNC(=O)c1nnc(NC(=O)C2CC2)cc1Nc1cccc(-c2cnn(C3CN(Cc4cccc(CO)n4)C3)c2)c1OC` [Compound 228] had a Kd in assay [1] of 0.01 to 10 nM. In addition, the IC50 in assay [2] (setting [4]) and in assay [3] (setting [4]) was 50 to 500 nM each time.
The compound `CNC(=O)c1nnc(NC(=O)C2CC2)cc1Nc1cccc(-c2ccc(C(=O)N(C)Cc3cccn(C)c3=O)nc2OC)c1OC` [Compound 25] displayed a Kd in assay [1] (SPR, JAK2 JH2 domain) of 0.01 to 10 nM. Also, the IC50 in assay [2] (TF1 JAK2 V617F) and in assay [3] (TF1 JAK2 V617F) was 500 to 5000 nM in each case.
With `CNC(=O)c1nnc(NC(=O)C2CC2)cc1Nc1ccc(C)c(-c2ccc(C3CN(Cc4cc(C#N)ccn4)C3)nc2)c1OC` [Compound 321], the Kd in assay [1] was 10 to 50 nM. Besides, the IC50 in assay [2] (setting [4]) and in assay [3] (setting [4]) was 5000 to 100000 nM throughout.
Take `CNC(=O)c1nnc(NC(=O)C2CC2)cc1Nc1cccc(-c2cnn([C@@H]3CCN(Cc4cccc(C#N)n4)C3)c2)c1OC` (single isomer, unassigned) [Compound 318]: in assay [1], the Kd was 0.01 to 10 nM. Moreover, the IC50 in assay [2] (setting [4]) and in assay [3] (setting [4]) was 500 to 5000 nM in each case.
On to `CNC(=O)c1nnc(NC(=O)C2CC2)cc1Nc1cccc(-c2cnn(C3CN(Cc4cccc(C(F)(F)F)n4)C3)c2)c1OC` [Compound 200], for which the Kd in assay [1] lay in the range of 0.01 to 10 nM. Further, the IC50 in assay [2] (setting [4]) and in assay [3] (setting [4]) was 50 to 500 nM throughout.
As to `CCOc1ccccc1CN(C)C(=O)c1ccc(-c2cccc(Nc3cc(NC(=O)C4CC4)nnc3C(=O)NC)c2OC)cn1` [Compound 83], in assay [1] (SPR, JAK2 JH2 domain), the Kd fell in the range of 0.01 to 10 nM. The IC50 in assay [2] (TF1 JAK2 V617F) and in assay [3] (TF1 JAK2 V617F) was 500 to 5000 nM each time.
`CNC(=O)c1nnc(NC(=O)C2CC2)cc1Nc1cccc(-c2ccc(C(=O)N(C)Cc3cnc4ccc(Cl)cn34)nc2)c1OC` [Compound 31] had a dissociation constant Kd in assay [1] (SPR, JAK2 JH2 domain) of 0.01 to 10 nM. The IC50 in assay [2] (TF1 JAK2 V617F) and in assay [3] (TF1 JAK2 V617F) was 500 to 5000 nM each time.
Consider `CNC(=O)c1nnc(NC(=O)C2CC2)cc1Nc1cccc(-c2ccc(C(=O)N(C)Cc3cc(S(C)(=O)=O)ccn3)nc2)c1OC` [Compound 72], for which, in assay [1] (SPR, JAK2 JH2 domain), the Kd is 0.01 to 10 nM. In addition, the IC50 in assay [2] (TF1 JAK2 V617F) and in assay [3] (TF1 JAK2 V617F) was 50 to 500 nM throughout.
As to `CNC(=O)c1nnc(NC(=O)C2CC2)cc1Nc1cccc(-c2cnn(C3CN(Cc4cccc(P(C)(C)=O)n4)C3)c2)c1OC` [Compound 378], the Kd in assay [1] lay within 0.01 to 10 nM. Moreover, the IC50 in assay [2] (setting [4]) and in assay [3] (setting [4]) was 500 to 5000 nM each time.
On to `CNC(=O)c1nnc(NC(=O)C2CC2)cc1Nc1cccc(-c2cnn(C3CN(Cc4cccc(F)c4)C3)c2)c1OC` [Compound 91], for which, in assay [1] (SPR, JAK2 JH2 domain), the Kd is 0.01 to 10 nM. For the same compound, the IC50 in assay [2] (TF1 JAK2 V617F) and in assay [3] (TF1 JAK2 V617F) was 500 to 5000 nM in each case.
`CNC(=O)c1nnc(NC(=O)C2CC2)cc1Nc1cccc(-c2cnc(C3CN(Cc4cccc5ncnn45)C3)nc2)c1OC` [Compound 327] yielded a Kd in assay [1] of 0.01 to 10 nM. Besides, the IC50 in assay [2] (setting [4]) and in assay [3] (setting [4]) was 5000 to 100000 nM throughout.
For the compound `CNC(=O)c1nnc(NC(=O)C2CC2)cc1Nc1cccc(-c2ccc(C(=O)N(C)Cc3cccc(OC(F)F)n3)nc2)c1OC` [Compound 179], the Kd in assay [1] (SPR, JAK2 JH2 domain) is 0.01 to 10 nM. Further, the IC50 in assay [2] (TF1 JAK2 V617F) and in assay [3] (TF1 JAK2 V617F) was 500 to 5000 nM in each case.
